Literature values as cited in US20260284040A1, “COMBINATION OF A PARP1 INHIBITOR AND A SELECTIVE ESTROGEN DEGRADER FOR TREATING CANCER” (ASTRAZENECA AB, priority 2023, published 2026).

What was measured:
[1] = test system: human bone marrow progenitor cells; settings: in vitro
[2] = test system: ER+ cell lines and PDX models; settings: wide range of ER+ cell lines and PDX models, including ESR1m models
[3] = in vivo

Q: With CCc1cc2ncc(CN3CCN(c4ccc(C(=O)NC)nc4)CC3)cc2[nH]c1=O [AZD5305, 5-{4-[(7-ethyl-6-oxo-5,6-dihydro-1,5-naphthyridin-3-yl)methyl]piperazin-1-yl}-N-methylpyridine-2-carboxamide] as the molecule, how does the “Effects on human bone marrow progenitor cells” value [1] read?
A: reduced effects

Q: For C[C@@H]1Cc2c(ccc3[nH]ncc23)[C@@H](c2ccc(NC3CN(CCCF)C3)cn2)N1CC(F)(F)F [Camizestrant, N-[1-(3-fluoropropyl)azetidin-3-yl]-6-[(6S,8R)-8-methyl-7-(2,2,2-trifluoroethyl)-6,7,8,9-tetrahydro-3H-pyrazolo[4,3-]isoquinolin-6-yl]-pyridin-3-amine], which Antitumour activities [2] is on record?
A: demonstrated antitumour activities

Q: What about the Oral bioavailability [3] of the same molecule?
A: orally bioavailable

Q: With C[C@]12CC[C@@H]3c4ccc(O)cc4C[C@@H](CCCCCCCCC[S+]([O-])CCCC(F)(F)C(F)(F)F)[C@H]3[C@@H]1CC[C@@H]2O (stereo partly shown) [fulvestrant] as the molecule, how does the Oral bioavailability [3] read?
A: not orally bioavailable
